Measurements published in patent US20050197350A1, “Novel quinoline, tetrahydroquinazoline, and pyrimidine derivatives and methods of treatment related to the use thereof” (TAISHO PHARMACEUTICAL CO., LTD., priority 2003, published 2005).

System: MCH receptors
Assay: MCH receptor activity class (method not given)
Settings: MCH receptor activity class 1-3 (percent of control at 10^-7 M or IC50)

| Compound | class |
| --- | --- |
| N-[(cis-4-{[4-(dimethylamino)pyrimidin-2-yl]amino}cyclohexyl)methyl]-N′-(2-ethyl-6-isopropylphenyl)urea [compound 2422] | 1 (Class 1: The value of percent of control at 10^−7 M was less than 40% or the value of IC50 was less than 50 nM.) |

Same assay, conditions: MCH receptor; class by percent of control at 10^-7 M or IC50

| Compound | class |
| --- | --- |
| N-cyclopropyl-N′-(cis-4-{[4-(dimethylamino)-5,6,7,8-tetrahydroquinazolin-2-yl]amino}cyclohexyl)thiourea [compound 2028] | 3 (Class 3 The value of percent of control at 10^−7 M was more than 60% or the value of IC50 was more than 200 nM.) |

Same assay, conditions: class by percent of control at 10^-7 M or IC50

| Compound | class |
| --- | --- |
| (2-{[4-(4-Dimethylamino-5,6,7,8-tetrahydro-quinazolin-2-ylamino)-cyclohexylamino]-methyl}-cyclohexyl)-phenyl-methanol [compound 1492] | 3 (Class 3 The value of percent of control at 10^−7 M was more than 60% or the value of IC50 was more than 200 nM.) |
| (3-{(1S)-2-[(cis-4-([4-(dimethylamino)-5,6,7,8-tetrahydroquinazolin-2-yl]amino}cyclohexyl)amino]-1-methylethyl}phenyl)(phenyl)methanol [compound 1496] | 3 (Class 3 The value of percent of control at 10^−7 M was more than 60% or the value of IC50 was more than 200 nM.) |
| N4,N4-dimethyl-N2-(cis-4-{[(2,4,5-trimethoxybenzyl)amino]-methyl}cyclohexyl)-5,6,7,8-tetrahydroquinazoline-2,4-diamine [compound 1416] | 1 (Class 1: The value of percent of control at 10^−7 M was less than 40% or the value of IC50 was less than 50 nM.) |

Same assay, conditions: class by percent of control at 10^−7 M or IC50

| Compound | class |
| --- | --- |
| Cc1cnc(N[C@H]2CC[C@@H](NCc3cccc(OC(F)(F)F)c3)CC2)nc1N(C)C [compound 3004] | 3 (Class 3 The value of percent of control at 10^−7 M was more than 60% or the value of IC50 was more than 200 nM.) |
| Cc1cc(N(C)C)nc(N[C@H]2CC[C@@H](NCc3cccc(OC(F)(F)F)c3)CC2)n1 [compound 3005] | 3 (Class 3 The value of percent of control at 10^−7 M was more than 60% or the value of IC50 was more than 200 nM.) |
| CN(C)c1nc(N[C@H]2CC[C@@H](NC(=O)c3ccc(F)c(F)c3)CC2)ncc1C(F)(F)F [compound 3006] | 3 (Class 3 The value of percent of control at 10^−7 M was more than 60% or the value of IC50 was more than 200 nM.) |
| Cc1cnc(N[C@H]2CC[C@@H](CNC(=O)c3cccnc3Oc3ccc(Br)cc3)C2)nc1N(C)C [compound 3012] | 2 (Class 2: The value of percent of control at 10^−7 M was from 40% to 60% or the value of IC′50 was from 50 nM to 200 nM.) |
| COc1ccccc1Oc1ncccc1C(=O)NC[C@@H]1CC[C@H](Nc2ncc(C)c(N(C)C)n2)C1 [compound 3013] | 1 (Class 1: The value of percent of control at 10^−7 M was less than 40% or the value of IC50 was less than 50 nM.) |
| Cc1cnc(N[C@H]2CC[C@@H](CNC(=O)c3cccnc3Oc3ccccc3Br)C2)nc1N(C)C [compound 3014] | 3 (Class 3 The value of percent of control at 10^−7 M was more than 60% or the value of IC50 was more than 200 nM.) |
| Cc1cnc(N[C@H]2CC[C@@H](CNC(=O)c3cccnc3Oc3ccccc3F)C2)nc1N(C)C [compound 3015] | 1 (Class 1: The value of percent of control at 10^−7 M was less than 40% or the value of IC50 was less than 50 nM.) |
| Cc1cnc(N[C@H]2CC[C@@H](CNC(=O)c3cccnc3Oc3cccc(F)c3)C2)nc1N(C)C [compound 3017] | 3 (Class 3 The value of percent of control at 10^−7 M was more than 60% or the value of IC50 was more than 200 nM.) |
| Cc1cnc(N[C@H]2CC[C@@H](CNC(=O)c3cccnc3Oc3cccc(Cl)c3)C2)nc1N(C)C [compound 3018] | 3 (Class 3 The value of percent of control at 10^−7 M was more than 60% or the value of IC50 was more than 200 nM.) |
| Cc1cnc(N[C@H]2CC[C@@H](CNC(=O)c3cccnc3Oc3ccc(F)c(Cl)c3)C2)nc1N(C)C [compound 3019] | 2 (Class 2: The value of percent of control at 10^−7 M was from 40% to 60% or the value of IC′50 was from 50 nM to 200 nM.) |
| Cc1cnc(N[C@H]2CC[C@@H](CNC(=O)c3cccnc3Oc3ccc(Cl)c(F)c3)C2)nc1N(C)C [compound 3020] | 3 (Class 3 The value of percent of control at 10^−7 M was more than 60% or the value of IC50 was more than 200 nM.) |
| Cc1cnc(N[C@H]2CC[C@@H](NC(=O)N(C)c3cccc(Cl)c3)CC2)nc1N(C)C [compound 3021, N-(3-chlorophenyl)-N′-(cis-4-{[4-(dimethylamino)-5-methylpyrimidin-2-yl]amino}cyclohexyl)-N-methylurea] | 1 (Class 1: The value of percent of control at 10^−7 M was less than 40% or the value of IC50 was less than 50 nM.) |
| Cc1cnc(N[C@H]2CC[C@@H](NC(=O)N(C)c3ccc(Cl)c(Cl)c3)CC2)nc1N(C)C [compound 3022, N-(3,4-dichlorophenyl)-N′-(cis-4-{[4-(dimethylamino)-5-methylpyrimidin-2-yl]amino}cyclohexyl)-N-methylurea] | 1 (Class 1: The value of percent of control at 10^−7 M was less than 40% or the value of IC50 was less than 50 nM.) |
| Cc1cccc(N(C)C(=O)N[C@H]2CC[C@@H](Nc3ncc(C)c(N(C)C)n3)CC2)c1 [compound 3023, N′-(cis-4-{[4-(dimethylamino)-5-methylpyrimidin-2-yl]amino}cyclohexyl)-N-methyl-N-(3-methylphenyl)urea] | 1 (Class 1: The value of percent of control at 10^−7 M was less than 40% or the value of IC50 was less than 50 nM.) |
| Cc1ccc(N(C)C(=O)N[C@H]2CC[C@@H](Nc3ncc(C)c(N(C)C)n3)CC2)cc1 [compound 3024, N′-(cis-4-{[4-(dimethylamino)-5-methylpyrimidin-2-yl]amino}cyclohexyl)-N-methyl-N-(4-methylphenyl)urea] | 1 (Class 1: The value of percent of control at 10^−7 M was less than 40% or the value of IC50 was less than 50 nM.) |
| Cc1cnc(N[C@H]2CC[C@@H](NC(=O)N(C)c3cccc(F)c3)CC2)nc1N(C)C [compound 3025, N′-(cis-4-{[4-(dimethylamino)-5-methylpyrimidin-2-yl]amino}cyclohexyl)-N-(3-fluorophenyl)-N-methylurea] | 1 (Class 1: The value of percent of control at 10^−7 M was less than 40% or the value of IC50 was less than 50 nM.) |
| Cc1cnc(N[C@H]2CC[C@@H](NC(=O)N(C)c3ccc(F)cc3)CC2)nc1N(C)C [compound 3026, N′-(cis-4-{[4-(dimethylamino)-5-methylpyrimidin-2-yl]amino}cyclohexyl)-N-(4-fluorophenyl)-N-methylurea] | 1 (Class 1: The value of percent of control at 10^−7 M was less than 40% or the value of IC50 was less than 50 nM.) |
| Cc1cnc(N[C@H]2CC[C@@H](NC(=O)N(C)c3ccc(Cl)cc3)CC2)nc1N(C)C [compound 3027, N-(4-chlorophenyl)-N′-(cis-4-{[4-(dimethylamino)-5-methylpyrimidin-2-yl]amino}cyclohexyl)-N-methylurea] | 1 (Class 1: The value of percent of control at 10^−7 M was less than 40% or the value of IC50 was less than 50 nM.) |
| COc1cccc(N(C)C(=O)N[C@H]2CC[C@@H](Nc3ncc(C)c(N(C)C)n3)CC2)c1 [compound 3028, N′-(cis-4-{[4-(dimethylamino)-5-methylpyrimidin-2-yl]amino}cyclohexyl)-N-(3-methoxyphenyl)-N-methylurea] | 1 (Class 1: The value of percent of control at 10^−7 M was less than 40% or the value of IC50 was less than 50 nM.) |
| COc1ccc(N(C)C(=O)N[C@H]2CC[C@@H](Nc3ncc(C)c(N(C)C)n3)CC2)cc1 [compound 3029, N′-(cis-4-{[4-(dimethylamino)-5-methylpyrimidin-2-yl]amino}cyclohexyl)-N-(4-methoxyphenyl)-N-methylurea] | 1 (Class 1: The value of percent of control at 10^−7 M was less than 40% or the value of IC50 was less than 50 nM.) |
| CNc1nc(N[C@H]2CC[C@@H](NC(=O)c3ccc(Cl)c(Cl)c3)CC2)ncc1C [compound 3030] | 3 (Class 3 The value of percent of control at 10^−7 M was more than 60% or the value of IC50 was more than 200 nM.) |
| N-(3,4-dimethoxyphenyl)-N′-(cis-4-{[4-(dimethylamino)-5,6-dimethylpyrimidin-2-yl]amino}cyclohexyl)urea [compound 2867] | 1 (Class 1: The value of percent of control at 10^−7 M was less than 40% or the value of IC50 was less than 50 nM.) |
